Reference: PubChem BioAssay (NCI)
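All cell lines were grown in 96-well plates and treated with compound for 48 hours. Definition used: TGI = concentration required for complete inhibition of growth.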

Key:
Test in all cases: inhibition of tumour cell growth, NCI panel, 48 h
HCC-2998 colon = test system: HCC-2998 colon
786-0 renal = test system: 786-0 renal
SNB-78 CNS = test system: SNB-78 CNS
CAKI-1 renal = test system: CAKI-1 renal
IGROV1 ovarian = test system: IGROV1 ovarian
EKVX NSCLC = test system: EKVX NSCLC
DLD-1 colon = test system: DLD-1 colon
SF-539 CNS = test system: SF-539 CNS
MALME-3M melanoma = test system: MALME-3M melanoma
NCI-H23 lung = test system: NCI-H23 lung
K-562 leukemia = test system: K-562 leukemia
SW-620 colon = test system: SW-620 colon
NCI-H226 lung = test system: NCI-H226 lung
OVCAR-3 ovarian = test system: OVCAR-3 ovarian
SK-OV-3 ovarian = test system: SK-OV-3 ovarian
SNB-19 CNS = test system: SNB-19 CNS
NCI-H460 lung = test system: NCI-H460 lung
OVCAR-8 ovarian = test system: OVCAR-8 ovarian
XF 498 CNS = test system: XF 498 CNS
OVCAR-5 ovarian = test system: OVCAR-5 ovarian
CCRF-CEM leukemia = test system: CCRF-CEM leukemia
RXF 393 renal = test system: RXF 393 renal
HT29 colon = test system: HT29 colon
HOP-92 NSCLC = test system: HOP-92 NSCLC
M14 melanoma = test system: M14 melanoma
OVCAR-4 ovarian = test system: OVCAR-4 ovarian
SK-MEL-2 melanoma = test system: SK-MEL-2 melanoma
LOX IMVI melanoma = test system: LOX IMVI melanoma
U251 CNS = test system: U251 CNS
SF-295 CNS = test system: SF-295 CNS
RPMI-8226 leukemia = test system: RPMI-8226 leukemia
SN12C renal = test system: SN12C renal
UO-31 renal = test system: UO-31 renal
SK-MEL-28 melanoma = test system: SK-MEL-28 melanoma
M19-MEL melanoma = test system: M19-MEL melanoma
KM12 colon = test system: KM12 colon
COLO 205 colon = test system: COLO 205 colon
SF-268 CNS = test system: SF-268 CNS
HL-60(TB) leukemia = test system: HL-60(TB) leukemia
UACC-257 melanoma = test system: UACC-257 melanoma
MOLT-4 leukemia = test system: MOLT-4 leukemia
TK-10 renal = test system: TK-10 renal
NCI-H522 lung = test system: NCI-H522 lung
HOP-62 NSCLC = test system: HOP-62 NSCLC
LXFL 529 NSCLC = test system: LXFL 529 NSCLC
SNB-75 CNS = test system: SNB-75 CNS
A549 NSCLC = test system: A549 NSCLC
ACHN renal = test system: ACHN renal
SK-MEL-5 melanoma = test system: SK-MEL-5 melanoma
DMS 114 small cell lung = test system: DMS 114 small cell lung
A498 renal = test system: A498 renal
KM20L2 colon = test system: KM20L2 colon
HCT-116 colon = test system: HCT-116 colon
HCT-15 colon = test system: HCT-15 colon
UACC-62 melanoma = test system: UACC-62 melanoma
SR leukemia = test system: SR leukemia

CC1=C(C(=O)Nc2cc(F)c(F)cc2F)C(c2ccc3c(c2)OCO3)C(C(=O)Nc2cc(F)c(F)cc2F)=C(C)N1
TGI (HCC-2998 colon): 39 µM | TGI (786-0 renal): 42.9 µM | TGI (SNB-78 CNS): 62.9 µM | TGI (CAKI-1 renal): 43.5 µM | TGI (IGROV1 ovarian): > 100 µM | TGI (EKVX NSCLC): 73.1 µM | TGI (DLD-1 colon): 75.1 µM | TGI (SF-539 CNS): 87 µM | TGI (MALME-3M melanoma): 69.4 µM | TGI (NCI-H23 lung): 71.1 µM | TGI (K-562 leukemia): 53.8 µM | TGI (SW-620 colon): > 100 µM | TGI (NCI-H226 lung): 85.3 µM | TGI (OVCAR-3 ovarian): 40.6 µM | TGI (SK-OV-3 ovarian): 65.3 µM | TGI (SNB-19 CNS): > 100 µM | TGI (NCI-H460 lung): 78.7 µM | TGI (OVCAR-8 ovarian): > 100 µM | TGI (XF 498 CNS): 26.8 µM | TGI (OVCAR-5 ovarian): 59.9 µM | TGI (CCRF-CEM leukemia): 55.1 µM | TGI (RXF 393 renal): 35.6 µM | TGI (HT29 colon): 61.4 µM | TGI (HOP-92 NSCLC): 25 µM | TGI (M14 melanoma): > 100 µM | TGI (OVCAR-4 ovarian): 77.7 µM | TGI (SK-MEL-2 melanoma): 46.7 µM | TGI (LOX IMVI melanoma): 35.3 µM | TGI (U251 CNS): > 100 µM | TGI (SF-295 CNS): 48.9 µM | TGI (RPMI-8226 leukemia): 52.9 µM | TGI (SN12C renal): 72.7 µM | TGI (UO-31 renal): 40.8 µM | TGI (SK-MEL-28 melanoma): > 100 µM | TGI (M19-MEL melanoma): 67 µM | TGI (KM12 colon): 46 µM | TGI (COLO 205 colon): 53.6 µM | TGI (SF-268 CNS): > 100 µM | TGI (HL-60(TB) leukemia): 36 µM | TGI (UACC-257 melanoma): 71.5 µM | TGI (MOLT-4 leukemia): 46.5 µM | TGI (TK-10 renal): 64.8 µM | TGI (NCI-H522 lung): 41.6 µM | TGI (HOP-62 NSCLC): 65.1 µM | TGI (LXFL 529 NSCLC): 80.4 µM | TGI (SNB-75 CNS): 45.4 µM | TGI (A549 NSCLC): 79.1 µM | TGI (ACHN renal): 60.6 µM | TGI (SK-MEL-5 melanoma): 52.6 µM | TGI (DMS 114 small cell lung): 52.1 µM | TGI (A498 renal): 65.2 µM | TGI (KM20L2 colon): 62.5 µM

Cc1ccc(NC(=O)C(=O)C(C2C(C)CC(=O)C2CC(=O)O)[N+](=O)[O-])cc1 (stereo unspecified)
TGI (HCC-2998 colon): > 100 µM | TGI (786-0 renal): > 100 µM | TGI (HCT-116 colon): > 100 µM | TGI (SNB-78 CNS): > 100 µM | TGI (CAKI-1 renal): > 100 µM | TGI (IGROV1 ovarian): > 100 µM | TGI (EKVX NSCLC): > 100 µM | TGI (DLD-1 colon): > 100 µM | TGI (HCT-15 colon): > 100 µM | TGI (SF-539 CNS): > 100 µM | TGI (MALME-3M melanoma): > 100 µM | TGI (NCI-H23 lung): > 100 µM | TGI (K-562 leukemia): > 100 µM | TGI (SW-620 colon): > 100 µM | TGI (NCI-H226 lung): > 100 µM | TGI (OVCAR-3 ovarian): > 100 µM | TGI (SK-OV-3 ovarian): > 100 µM | TGI (SNB-19 CNS): > 100 µM | TGI (NCI-H460 lung): > 100 µM | TGI (OVCAR-8 ovarian): > 100 µM | TGI (XF 498 CNS): > 100 µM | TGI (OVCAR-5 ovarian): > 100 µM | TGI (CCRF-CEM leukemia): > 100 µM | TGI (RXF 393 renal): > 100 µM | TGI (HT29 colon): > 100 µM | TGI (UACC-62 melanoma): > 100 µM | TGI (HOP-92 NSCLC): > 100 µM | TGI (M14 melanoma): > 100 µM | TGI (OVCAR-4 ovarian): > 100 µM | TGI (SK-MEL-2 melanoma): > 100 µM | TGI (LOX IMVI melanoma): > 100 µM | TGI (U251 CNS): > 100 µM | TGI (SF-295 CNS): > 100 µM | TGI (RPMI-8226 leukemia): > 100 µM | TGI (SN12C renal): > 100 µM | TGI (UO-31 renal): > 100 µM | TGI (SK-MEL-28 melanoma): > 100 µM | TGI (KM12 colon): > 100 µM | TGI (COLO 205 colon): > 100 µM | TGI (SF-268 CNS): > 100 µM | TGI (HL-60(TB) leukemia): > 100 µM | TGI (UACC-257 melanoma): > 100 µM | TGI (MOLT-4 leukemia): > 100 µM | TGI (SR leukemia): > 100 µM | TGI (TK-10 renal): > 100 µM | TGI (HOP-62 NSCLC): > 100 µM | TGI (LXFL 529 NSCLC): > 100 µM | TGI (SNB-75 CNS): > 100 µM | TGI (A549 NSCLC): > 100 µM | TGI (ACHN renal): > 100 µM | TGI (SK-MEL-5 melanoma): > 100 µM | TGI (DMS 114 small cell lung): > 100 µM | TGI (A498 renal): > 100 µM | TGI (KM20L2 colon): > 100 µM
